These results are taken from article PMC9788418, “Design, Synthesis and Biological Evaluation of Syn and Anti-like Double Warhead Quinolinones Bearing Dihydroxy Naphthalene Moiety as Epidermal Growth Factor Receptor Inhibitors with Potential Apoptotic Antiproliferative Action” (Molecules, 2022).

What all share (type): cell-based, human
A short description of data set [1]: Cell viability assay (MTT) on normal cell line. Particulars: human, MCF-10A mammary gland epithelial cells, four days. As for the experimental part: A cell viability test was performed using MCF-10A (human mammary gland epithelial) cell line to investigate the effect of 4a–e and 7a–e on normal cell lines. In this investigation, a concentration of 50 µM of the studied compound is employed for four days, after which cell viability is assessed.
4.2. Biological evaluation
4.2.1. Cytotoxic activity using MTT Assay and evaluation of IC50
MTT assay was carried out to study the effect of compounds on mammary epithelial cells (MCF-10A). The medium in which cells were propagated contained Dulbecco's modified Eagle's medium (DMEM)/ Ham's F-12 medium (1:1) supplemented with epidermal growth factor (20 ng/mL), hydrocortisone (500 ng/mL), insulin (10 μg/mL), 2 mM glutamine and 10% foetal calf serum. After every 2-3 days, the cells were passaged using trypsin ethylenediamine tetra acetic acid (EDTA). The cells were seeded at a density of 10^4 cells mL-1 in flat-bottomed culture plates containing 96 wells each. After 24 h, medium was removed from the plates and the compounds in (in 0.1% DMSO) were added (in 200 μL medium to yield a final concentration of 0.1% v/v) to the wells of plates. A single compound was designated with four wells followed by incubation of plates for 96h at 37°C. After incubation, medium was removed completely from the plates followed by addition of MTT (0.4 mg/mL in medium) to each well and subsequent incubation of plates for 3h. MTT (along with the medium) was removed and DMSO (150μL) was added to each well of the culture plates, followed by vortexing and subsequent measurement of absorbance (at 540 nm) using microplate reader. […]

The next data set has as its system Bax. Briefly: Bax activation assay. Particulars: for Bax Conc: A-549; for Bax Fold Change: A-549, vs control untreated cells. As for the experimental part:
8, and lysed with Cell Extraction Buffer. This lysate was diluted in Standard Diluent Buffer over the range of the assay and measured for human active caspase-8 content. (cells are Plated in a density of 1.2 – 1.8 × 10,000 cells/well in a volume of 100µl complete growth medium + 100 ul of the tested compound per well in a 96-well plate for 24 hours before the enzyme assay for […].). […]
4.2.4. Bax activation assay
Bring all reagents, except the human Bax-α Standard, to room temperature for at least 30 minutes prior to opening. The human Bax-α Standard solution should not be left at room temperature for more than 10 minutes. All standards, controls and samples should be run in duplicate. Refer to the Assay Layout Sheet to determine the number of wells to be used and put any remaining wells with the desiccant back into the pouch and seal the ziploc. Store unused wells at 4 °C. Pipet 100 μL of Assay Buffer into the S0 (0 pg/mL standard) wells. Pipet 100 μL of Standards #1 through #6 into the appropriate wells. Pipet 100 μL of the Samples into the appropriate wells. Tap the plate gently to mix the contents. Seal the plate and incubate at room temperature on a plate shaker for 1 hour at ~500 rpm. Empty the contents of the wells and wash by adding 400 μL of wash solution to every well.
Repeat the wash 4 more times for a total of 5 washes. After the final wash, empty or aspirate the wells and firmly tap the plate on a lint free paper towel to remove any remaining wash buffer. Pipet 100 μL of yellow Antibody into each well, except the Blank. Seal the plate and incubate at room temperature on a plate shaker for 1 hour at ~500 […]
wells and firmly tap the plate on a lint free paper towel to remove any remaining wash buffer. Add […]
100 μL of blue Conjugate to each well, except the Blank. Seal the plate and incubate at room temperature on a plate shaker for 30 minutes at ~500 rpm. Empty the contents of the wells and wash by adding 400 μL of wash solution to every well. Repeat the wash 4 more times for a total of 5 washes. After the final wash, empty or aspirate the wells and firmly tap the plate on a lint free paper towel to remove any remaining wash buffer. Pipet 100 μL of Substrate Solution into each well.
Incubate for 30 minutes at room temperature on a plate shaker at ~500 rpm. Pipet 100 μL Stop Solution to each well. Blank the plate reader against the Blank wells, read the optical density at 450 nm. Calculate the average net Optical Density (OD) bound for each standard and sample by subtracting the average Blank OD from the average OD for each standard and sample. Using linear graph paper, plot the Average Net OD for each standard versus Bax concentration in each standard.
Approximate a straight line through the points. The concentration of Bax in the unknowns can be determined by interpolation. […]

The subject of the next data set is Bcl-2. Kind of data set: Bcl-2 inhibition assay. The note with it: for Bcl-2 Conc: A-549; for Bcl-2 Fold Reduction: A-549, vs control. Here is the method:
4.2.5. Bcl-2inhibition assay
Mix all reagents thoroughly without foaming before use. Wash the microwells twice with approximately 300 μL Wash Buffer per well with thorough aspiration of microwell contents between washes. Take caution not to scratch the surface of the microwells. After the last wash, empty the wells and tap microwell strips on absorbent pad or paper towel to remove excess Wash Buffer. Use the microwell strips immediately after washing or place upside down on a wet absorbent paper for not […]
longer than 15 minutes. […] Add 100 μL of Sample Diluent in duplicate to all standard wells and to the blank wells. Prepare standard (1:2 dilution) in duplicate ranging from 32 ng/mL to 0.5 ng/mL. Add 100 μL of Sample Diluent, in duplicate, to the blank wells. Add 80 μL of Sample Diluent, in duplicate, to the sample wells. Add 20 μL of each Sample, in duplicate, to the designated wells. Add 50 μL of diluted biotin-conjugate to all wells, including the blank wells. Cover […]
Remove plate cover and empty the wells. […]
plate cover and incubate at room temperature, on a microplate shaker at 100 rpm if available, for 1 hour. Remove plate cover and empty the wells. Wash microwell strips 3 times as described in step 2.
Proceed to the next step. Pipette 100 μl of mixed TMB Substrate Solution to all wells, including the […]
available on a rotator set at 100 rpm. Avoid direct exposure to intense light. The point, at which the substrate reaction is stopped, is often determined by the ELISA reader. Many ELISA readers record absorbance only up to 2.0 O.D. Therefore, the color development within individual microwells must be watched by the person running the assay and the substrate reaction stopped before positive wells are no longer properly detectable. Stop the enzyme reaction by quickly pipetting 100 μL of Stop Solution into each well, including the blank wells. It is important that the Stop Solution is spread quickly and uniformly throughout the microwells to completely inactivate the enzyme. Results must be read immediately after the Stop Solution is added or within one hour if the microwell strips are stored at 2 - 8°C in the dark. Read absorbance of each microwell on a spectrophotometer using 450 nm as the primary wave length. […]

“And” between values parts separate entries of the source, which are not always exact repeats. Equal entries are not always repeated.

As to `O=c1cc(-n2cc(COc3cccc4cccc(OCc5cn(-c6cc(=O)[nH]c7ccccc67)nn5)c34)nn2)c2ccccc2[nH]1` [Compound 4a, 4,4′-(((naphthalene-1,8-diylbis(oxy))bis(methylene))bis(1H-1,2,3-triazole-4,1-diyl))-bis-(quinolin-2(1H)-one)], the viability at 96 h, 50 µM in data set [1] turned out to be 91%. Besides, in the data set with Bax, the “Bax Conc” value is 298 pg/mL and 298.60 pg/mL; the “Bax Fold Change” value stood at 36. In addition, in the data set with Bcl-2, the “Bcl-2 Conc” value worked out at 1.05 ng/mL and the “Bcl-2 Fold Reduction” value stood at 5.

As to `Cc1ccc2[nH]c(=O)cc(-n3cc(COc4cccc5cccc(OCc6cn(-c7cc(=O)[nH]c8ccc(C)cc78)nn6)c45)nn3)c2c1` [Compound 4b, 4,4′-(((naphthalene-1,8-diylbis(oxy))bis(methylene))bis(1H-1,2,3-triazole-4,1-diyl))-bis(6-methylquinolin-2(1H)-one)], in data set [1], the viability at 96 h, 50 µM came out at 89%. In the data set on Bax, the “Bax Conc” value was 284 pg/mL and 284.50 pg/mL; the “Bax Fold Change” value came out at 34. Further, in the data set with Bcl-2, the “Bcl-2 Conc” value is recorded as 1.17 ng/mL and the “Bcl-2 Fold Reduction” value worked out at 4.

The term viability denotes a per cent measure of how many cells are alive, often set against a control.
